Patent US9527867B2, “Antibacterial biaromatic derivatives” (Actelion Pharmaceuticals Ltd., priority 2013, dated 2016)
In brackets after ≈: the same amount, converted by molar mass.

Experiments:
Assay in all cases: Bacterial growth minimal inhibitory concentration (broth microdilution, CLSI M7-A7)
Assay type in all cases: cell-based
[1] = system: Enterococcus faecium A949; conditions: multiply-resistant strain (in particular quinolone-resistant); for MIC: Enterococcus faecium, A949, cation-adjusted Mueller-Hinton Broth, read-out: MIC for E. faecium A949
Description: (§1) Minimal Inhibitory Concentrations (MICs; mg/L) were determined in cation-adjusted Mueller-Hinton Broth by a microdilution method following the description given in “Methods for Dilution Antimicrobial Susceptibility Tests for Bacteria that Grow Aerobically”, Approved standard, 7th ed., Clinical and Laboratory Standards Institute (CLSI) Document M7-A7, Wayne, Pa., USA (2006).
(§2) All Example compounds were tested against several Gram positive and Gram negative bacteria. […] Staphylococcus aureus A798, Enterococcus faecium A949 and Acinetobacter baumannii T6474 are multiply-resistant strains (in particular quinolone-resistant), while Moraxella catarrhalis A894 is a quinolone-sensitive strain and Staphylococcus aureus ATCC29213 is a methicillin-sensitive and quinolone-sensitive strain.

[2] = system: Staphylococcus aureus ATCC29213; conditions: methicillin-sensitive and quinolone-sensitive strain; for MIC: Staphylococcus aureus, ATCC29213, cation-adjusted Mueller-Hinton Broth, read-out: MIC for S. aureus ATCC29213
Description: as §1, §2

[3] = system: Moraxella catarrhalis A894; conditions: quinolone-sensitive strain; for MIC: Moraxella catarrhalis, A894, cation-adjusted Mueller-Hinton Broth
Description: as §1, §2

[4] = system: Staphylococcus aureus A798; conditions: multiply-resistant strain (in particular quinolone-resistant); for MIC: Staphylococcus aureus, A798, cation-adjusted Mueller-Hinton Broth, read-out: MIC for S. aureus A798
Description: as §1, §2

[5] = system: Acinetobacter baumannii T6474; conditions: multiply-resistant strain (in particular quinolone-resistant); for MIC: Acinetobacter baumannii, T6474, cation-adjusted Mueller-Hinton Broth
Description: as §1, §2

[6] = cation-adjusted Mueller-Hinton Broth

Row | Molecule | MIC [1] [µg/mL] | MIC [2] [µg/mL] | MIC [3] [µg/mL] | MIC [4] [µg/mL] | MIC [5] [µg/mL] | MIC for E. faecium A949 [1, 6] [µg/mL] | MIC for S. aureus ATCC29213 [2, 6] [µg/mL] | MIC for M. catarrhalis A894 [3, 6] | MIC for S. aureus A798 [4, 6] [µg/mL] | MIC for A. baumannii T6474 [5, 6] [µg/mL]
1 | COc1cccc(-c2cccc(CNCC[C@H]3CN(c4ccc5c(n4)NC(=O)CO5)C(=O)O3)c2)c1C#N [Example 86, 3-methoxy-3′-({2-[(S)-2-oxo-3-(3-oxo-3,4-dihydro-2H-pyrido[3,2-b][1,4]oxazin-6-yl)-oxazolidin-5-yl]-ethylamino}-methyl)-biphenyl-2-carbonitrile] | 4 (≈ 8.01 µM) | 0.125 (≈ 0.25 µM) | ≤ 0.016 | 0.5 (≈ 1 µM) | 8 (≈ 16 µM) | – | – | – | – | –
2 | COc1cnnc(-c2cccc(CNCC[C@H]3CN(c4ccc5c(n4)NC(=O)CO5)C(=O)O3)c2)c1 [Example 44, 6-((S)-5-{2-[3-(5-methoxy-pyridazin-3-yl)-benzylamino]-ethyl}-2-oxo-oxazolidin-3-yl)-4H-pyrido[3,2-b][1,4]oxazin-3-one] | 8 (≈ 16.8 µM) | 0.25 (≈ 0.525 µM) | ≤ 0.016 | 0.125 (≈ 0.262 µM) | 0.25 (≈ 0.525 µM) | – | – | – | – | –
3 | N#Cc1cccc(-c2cccc(CNCC[C@H]3CN(c4ccc5c(n4)NC(=O)CS5)C(=O)O3)c2)c1 [Example 100, 3′-({2-[(S)-2-oxo-3-(3-oxo-3,4-dihydro-2H-pyrido[3,2-b][1,4]thiazin-6-yl)-oxazolidin-5-yl]-ethylamino}-methyl)-biphenyl-3-carbonitrile] | 0.5 (≈ 1.03 µM) | ≤ 0.016 | ≤ 0.016 | ≤ 0.016 | 0.125 (≈ 0.257 µM) | – | – | – | – | –
4 | COc1cc(-c2cccc(CNCC[C@H]3CN(c4ccc5c(n4)NC(=O)CO5)C(=O)O3)c2)ccn1 [Example 55, 6-((S)-5-{2-[3-(2-methoxy-pyridin-4-yl)-benzylamino]-ethyl}-2-oxo-oxazolidin-3-yl)-4H-pyrido[3,2-b][1,4]oxazin-3-one] | > 8 | 2 (≈ 4.21 µM) | 0.031 (≈ 0.0652 µM) | 2 (≈ 4.21 µM) | 1 (≈ 2.1 µM) | – | – | – | – | –
5 | COc1cccc(-c2cccc(CNCCc3nn(-c4ccc5c(n4)NC(=O)CO5)c(=O)o3)c2O)n1 [Example 74, 6-(5-{2-[2-hydroxy-3-(6-methoxy-pyridin-2-yl)-benzylamino]-ethyl}-2-oxo-[1,3,4]oxadiazol-3-yl)-4H-pyrido[3,2-b][1,4]oxazin-3-one] | 0.5 (≈ 1.02 µM) | 0.125 (≈ 0.255 µM) | ≤ 0.016 | 0.063 (≈ 0.128 µM) | 0.25 (≈ 0.51 µM) | – | – | – | – | –
6 | N#Cc1cccc(-c2cccc(CNCCc3nn(-c4ccc5c(n4)NC(=O)CO5)c(=O)o3)c2O)n1 [Example 61, 6-[2-hydroxy-3-({2-[5-oxo-4-(3-oxo-3,4-dihydro-2H-pyrido[3,2-b][1,4]oxazin-6-yl)-4,5-dihydro-[1,3,4]oxadiazol-2-yl]-ethylamino}-methyl)-phenyl]-pyridine-2-carbonitrile] | 2 (≈ 4.12 µM) | 0.25 (≈ 0.515 µM) | ≤ 0.016 | 0.5 (≈ 1.03 µM) | 0.5 (≈ 1.03 µM) | – | – | – | – | –
7 | COc1cc(O)cc(-c2cccc(CNCC[C@@H]3CN(c4ccc5c(c4)NC(=O)CS5)C(=O)O3)c2)c1 [Example 10, 6-((R)-5-{2-[(3′-hydroxy-5′-methoxy-biphenyl-3-ylmethyl)-amino]-ethyl}-2-oxo-oxazolidin-3-yl)-4H-benzo[1,4]thiazin-3-one] | 8 (≈ 15.8 µM) | 0.5 (≈ 0.989 µM) | ≤ 0.016 | 0.5 (≈ 0.989 µM) | 0.5 (≈ 0.989 µM) | – | – | – | – | –
8 | COc1cccc(-c2cccc(CNCC[C@@H]3CN(c4ccc5c(c4)NC(=O)CS5)C(=O)O3)n2)n1 [Example 22, 6-((R)-5-{2-[(6′-methoxy-[2,2]bipyridinyl-6-ylmethyl)-amino]-ethyl}-2-oxo-oxazolidin-3-yl)-4H-benzo[1,4]thiazin-3-one] | 2 (≈ 4.07 µM) | 0.25 (≈ 0.509 µM) | 0.063 (≈ 0.128 µM) | 0.5 (≈ 1.02 µM) | 1 (≈ 2.03 µM) | – | – | – | – | –
9 | COc1cccc(-c2cccc(CNCCc3nn(-c4ccc5c(n4)NC(=O)CO5)c(=O)o3)c2)c1 [Example 107, 6-(5-{2-[(3′-methoxy-biphenyl-3-ylmethyl)-amino]-ethyl}-2-oxo-[1,3,4]oxadiazol-3-yl)-4H-pyrido[3,2-b][1,4]oxazin-3-one] | 8 (≈ 16.9 µM) | 4 (≈ 8.45 µM) | 0.063 (≈ 0.133 µM) | 8 (≈ 16.9 µM) | 2 (≈ 4.22 µM) | – | – | – | – | –
10 | COc1cccc(-c2cnnc(CNCC[C@H]3CN(c4ccc5c(n4)NC(=O)CO5)C(=O)O3)c2)c1 [Example 103, 6-[(S)-5-(2-{[5-(3-methoxy-phenyl)-pyridazin-3-ylmethyl]-amino}-ethyl)-2-oxo-oxazolidin-3-yl]-4H-pyrido[3,2-b][1,4]oxazin-3-one] | 2 (≈ 4.2 µM) | 0.25 (≈ 0.525 µM) | 0.063 (≈ 0.132 µM) | 1 (≈ 2.1 µM) | 0.5 (≈ 1.05 µM) | – | – | – | – | –
11 | COc1ccc(-c2cccc(CNCC[C@H]3CN(c4ccc5c(n4)NC(=O)CO5)C(=O)O3)c2)cc1OC [Example 48, 6-((S)-5-{2-[(3′,4′-dimethoxy-biphenyl-3-ylmethyl)-amino]-ethyl}-2-oxo-oxazolidin-3-yl)-4H-pyrido[3,2-b][1,4]oxazin-3-one] | 16 (≈ 31.7 µM) | 4 (≈ 7.93 µM) | 0.125 (≈ 0.248 µM) | 4 (≈ 7.93 µM) | 16 (≈ 31.7 µM) | – | – | – | – | –
12 | COc1ccnc(-c2cccc(CNCC[C@H]3CN(c4ccc5c(n4)NC(=O)CO5)C(=O)O3)c2O)c1 [Example 106, 6-((S)-5-{2-[2-hydroxy-3-(4-methoxy-pyridin-2-yl)-benzylamino]-ethyl}-2-oxo-oxazolidin-3-yl)-4H-pyrido[3,2-b][1,4]oxazin-3-one] | 2 (≈ 4.07 µM) | 0.125 (≈ 0.254 µM) | ≤ 0.016 | 0.125 (≈ 0.254 µM) | 1 (≈ 2.03 µM) | – | – | – | – | –
13 | CCOc1cccc(-c2cccc(CNCC[C@H]3CN(c4ccc5c(n4)NC(=O)CO5)C(=O)O3)c2)c1 [Example 70, 6-((S)-5-{2-[(3′-ethoxy-biphenyl-3-ylmethyl)-amino]-ethyl}-2-oxo-oxazolidin-3-yl)-4H-pyrido[3,2-b][1,4]oxazin-3-one] | 8 (≈ 16.4 µM) | 1 (≈ 2.05 µM) | 0.063 (≈ 0.129 µM) | 0.5 (≈ 1.02 µM) | 2 (≈ 4.09 µM) | – | – | – | – | –
14 | COc1cnnc(-c2cccc(CNCC[C@@H]3CN(c4ccc5c(c4)NC(=O)CS5)C(=O)O3)c2)c1 [Example 30, 6-((R)-5-{2-[3-(5-methoxy-pyridazin-3-yl)-benzylamino]-ethyl}-2-oxo-oxazolidin-3-yl)-4H-benzo[1,4]thiazin-3-one] | 4 (≈ 8.14 µM) | 0.125 (≈ 0.254 µM) | 0.031 (≈ 0.0631 µM) | 0.125 (≈ 0.254 µM) | 0.25 (≈ 0.509 µM) | – | – | – | – | –
15 | N#Cc1cccc(-c2cccc(CNCC[C@H]3CN(c4ccc5c(c4)NC(=O)CS5)C(=O)O3)c2)c1 [Example 3, 3′-({2-[(S)-2-oxo-3-(3-oxo-3,4-dihydro-2H-benzo[1,4]thiazin-6-yl)-oxazolidin-5-yl]-ethylamino}-methyl)-biphenyl-3-carbonitrile] | 0.5 (≈ 1.03 µM) | 0.063 (≈ 0.13 µM) | ≤ 0.016 | 0.063 (≈ 0.13 µM) | 0.125 (≈ 0.258 µM) | – | – | – | – | –
16 | 6-(5-{2-[(3′-methoxy-biphenyl-3-ylmethyl)-amino]-ethyl}-2-oxo-oxazol-3-yl)-4H-pyrido[3,2-b][1,4]oxazin-3-one [Example 34] | – | – | – | – | – | 1 | 0.125 | ≦0.016 mg/L | 0.125 | 0.25
17 | COc1cc(-c2cccc(CNCC[C@@H]3CN(c4ccc5c(c4)NC(=O)CS5)C(=O)O3)c2)nc(OC)n1 [Example 26, 6-((R)-5-{2-[3-(2,6-dimethoxy-pyrimidin-4-yl)-benzylamino]-ethyl}-2-oxo-oxazolidin-3-yl)-4H-benzo[1,4]thiazin-3-one] | 4 (≈ 7.67 µM) | 0.5 (≈ 0.959 µM) | 0.063 (≈ 0.121 µM) | 0.25 (≈ 0.479 µM) | 2 (≈ 3.83 µM) | – | – | – | – | –
18 | COc1cnnc(-c2cccc(CNCCc3cn(-c4ccc5c(n4)NC(=O)CO5)c(=O)o3)c2)c1 [Example 83, 6-(5-{2-[3-(5-methoxy-pyridazin-3-yl)-benzylamino]-ethyl}-2-oxo-oxazol-3-yl)-4H-pyrido[3,2-b][1,4]oxazin-3-one] | 2 (≈ 4.22 µM) | 0.063 (≈ 0.133 µM) | ≤ 0.016 | 0.063 (≈ 0.133 µM) | 0.063 (≈ 0.133 µM) | – | – | – | – | –
19 | N#Cc1cccc(-c2cccc(CNCCc3nn(-c4ccc5c(n4)NC(=O)CO5)c(=O)o3)c2)c1 [Example 56, 3′-({2-[5-oxo-4-(3-oxo-3,4-dihydro-2H-pyrido[3,2-b][1,4]oxazin-6-yl)-4,5-dihydro-[1,3,4]oxadiazol-2-yl]-ethylamino}-methyl)-biphenyl-3-carbonitrile] | 4 (≈ 8.54 µM) | 0.5 (≈ 1.07 µM) | ≤ 0.016 | 2 (≈ 4.27 µM) | 1 (≈ 2.13 µM) | – | – | – | – | –
20 | COc1cccc(-c2cc(CNCC[C@@H]3CN(c4ccc5c(c4)NC(=O)CS5)C(=O)O3)ccn2)c1 [Example 39, 6-[(R)-5-(2-{[2-(3-methoxy-phenyl)-pyridin-4-ylmethyl]-amino}-ethyl)-2-oxo-oxazolidin-3-yl]-4H-benzo[1,4]thiazin-3-one] | 4 (≈ 8.15 µM) | 1 (≈ 2.04 µM) | 0.125 (≈ 0.255 µM) | 1 (≈ 2.04 µM) | 2 (≈ 4.08 µM) | – | – | – | – | –
21 | COc1ccc(C#N)c(-c2cccc(CNCC[C@@H]3CN(c4ccc5c(c4)NC(=O)CS5)C(=O)O3)c2)c1 [Example 8, 5-methoxy-3′-({2-[(R)-2-oxo-3-(3-oxo-3,4-dihydro-2H-benzo[1,4]thiazin-6-yl)-oxazolidin-5-yl]-ethylamino}-methyl)-biphenyl-2-carbonitrile] | 1 (≈ 1.94 µM) | 0.063 (≈ 0.122 µM) | ≤ 0.016 | 0.063 (≈ 0.122 µM) | 0.25 (≈ 0.486 µM) | – | – | – | – | –
